According to ChEMBL document CHEMBL1201862, “PubChem BioAssay data set” (2004):
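Protocol summary: plate cells (96-well), add compound at 5 concentrations, incubate 48 h, interpolate endpoints linearly. The concentration for 50% growth inhibition is given as GI50.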 Activity calls are given as the source filed them. Cut-off read from the data, not from the text of the source: active = GI50 up to about 1.1 µM and inactive = higher.

Assays:
Test in all cases: NCI tumour cell line growth inhibition, 48 h
[1] = system: BT-549
[2] = system: CAKI-1
[3] = system: DU-145
[4] = system: HL-60
[5] = system: HOP-62
[6] = system: LOX IMVI
[7] = system: NCI-H226
[8] = system: NCI-H23
[9] = system: NCI/ADR-RES
[10] = system: OVCAR-3
[11] = system: RPMI-8226
[12] = system: RXF 393
[13] = system: SF-268
[14] = system: SK-MEL-28
[15] = system: SK-MEL-5
[16] = system: SK-OV-3
[17] = system: SNB-19
[18] = system: T47D
[19] = system: TK-10
[20] = system: UO-31

Measured: GI50

C[C@]12CC[C@@H]3c4cc(OCC(F)(F)F)c(O)cc4C(=O)C[C@H]3[C@@H]1CC[C@@H]2O
inactive: [1] 6.34 µM | [2] 6.93 µM | [3] 17.3 µM | [4] 1.84 µM | [5] 12.6 µM | [6] 5.79 µM | [7] 22.5 µM | [8] 12 µM | [9] 6.35 µM | [10] 2.88 µM | [11] 3.2 µM | [12] 13 µM | [13] 13.7 µM | [14] 7.64 µM | [15] 5.87 µM | [16] 10.6 µM | [17] 13.5 µM | [18] 29.1 µM | [19] 18.7 µM | [20] 13.6 µM

Cc1cc(NC2=CC(=O)C(=O)c3ccccc32)no1
inactive: [1] 5.53 µM | [2] 5.71 µM | [3] 16.4 µM | [4] 6.22 µM | [5] 17.6 µM | [6] 1.84 µM | [7] 17.6 µM | [8] 1.54 µM | [9] 3.87 µM | [10] 3.85 µM | [11] 6.05 µM | [12] 15.1 µM | [13] 15.2 µM | [14] 13.5 µM | [15] 2.26 µM | [16] 19.4 µM | [17] 16.2 µM | [18] 11.9 µM | [19] 26.1 µM | [20] 7.94 µM

O=C1c2ccccc2CN1c1ccc(OCCN2CCCCC2)cc1
inactive: [1] > 10 µM | [2] > 10 µM | [3] > 10 µM | [4] > 10 µM | [5] > 10 µM | [6] > 10 µM | [7] > 10 µM | [8] > 10 µM | [9] > 10 µM | [10] > 10 µM | [11] > 10 µM | [12] > 10 µM | [13] > 10 µM | [14] > 10 µM | [15] > 10 µM | [16] > 10 µM | [17] > 10 µM | [18] > 10 µM | [19] > 10 µM | [20] > 10 µM

CSc1ccc(NC(=O)Nc2cc(C)ccn2)cc1
inactive: [1] > 100 µM | [2] > 100 µM | [3] > 100 µM | [4] > 100 µM | [5] > 100 µM | [6] > 100 µM | [7] > 100 µM | [8] > 100 µM | [9] > 100 µM | [10] > 100 µM | [11] > 100 µM | [12] > 100 µM | [13] > 100 µM | [14] > 100 µM | [15] > 100 µM | [16] > 100 µM | [17] > 100 µM | [18] > 100 µM | [19] > 100 µM | [20] > 100 µM
